Like-named read-outs stand apart in the source and are kept apart here. Starred links: 1 amine or outer side, 2 acyl side, 3 side chain; linkers in the order of their positions; H or OH if unused. Positions of bridges follow the written chain, without caps; N, C: chain ends. Residues, ends and D or L forms follow the SMILES beside them. Chains are numbered I, II in the order given. No end group written: not given here. X3 = O=C(CCOCCN(CCOCCC(=O)NCCOCCOCCOCCOCCOCCOCCOCCOCCOCCOCCOCCOCCOCCOCCOCCOCCOCCOCCOCCOCCOCCOCCOCCn1cc(CCC(=O)[*:2])nn1)CCOCCC(=O)NCCOCCOCCOCCOCCOCCOCCOCCOCCOCCOCCOCCOCCOCCOCCOCCOCCOCCOCCOCCOCCOCCOCCOCCn1cc(CCC(=O)[*:3])nn1)NCCOCCOCCOCCOCCOCCOCCOCCOCCOCCOCCOCCOCCOCCOCCOCCOCCOCCOCCOCCOCCOCCOCCOCCn1cc(CCC(=O)[*:1])nn1; X2 = O=C(CCCC(=O)NCCOCCOCCOCCOCCOCCOCCOCCOCCOCCOCCOCCOCCOCCOCCOCCOCCOCCOCCOCCOCCOCCOCCOCCn1cc(CCC(=O)[*:2])nn1)NCCOCCOCCOCCOCCOCCOCCOCCOCCOCCOCCOCCOCCOCCOCCOCCOCCOCCOCCOCCOCCOCCOCCOCCn1cc(CCC(=O)[*:1])nn1; X1 = O=C(C[*:1])N1CCN(C(=O)C[*:2])CCN(C(=O)C[*:3])CC1
Tests used:
[1] = target: T1, P-Selectin:PSGL1 interaction (Homo sapiens, UniProt P16109); experiment: Receptor ligand inhibition assay (P-Selectin binding to HL-60 cells); format: cell-based; details: for Inhibition at top concentration: 100−% response at top concentration
T1 construct: host or cells: HL-60 cells (ATCC, CCL-240) supply the PSGL-1 partner endogenously
T1 sequence (P16109 42-771 limits assumed): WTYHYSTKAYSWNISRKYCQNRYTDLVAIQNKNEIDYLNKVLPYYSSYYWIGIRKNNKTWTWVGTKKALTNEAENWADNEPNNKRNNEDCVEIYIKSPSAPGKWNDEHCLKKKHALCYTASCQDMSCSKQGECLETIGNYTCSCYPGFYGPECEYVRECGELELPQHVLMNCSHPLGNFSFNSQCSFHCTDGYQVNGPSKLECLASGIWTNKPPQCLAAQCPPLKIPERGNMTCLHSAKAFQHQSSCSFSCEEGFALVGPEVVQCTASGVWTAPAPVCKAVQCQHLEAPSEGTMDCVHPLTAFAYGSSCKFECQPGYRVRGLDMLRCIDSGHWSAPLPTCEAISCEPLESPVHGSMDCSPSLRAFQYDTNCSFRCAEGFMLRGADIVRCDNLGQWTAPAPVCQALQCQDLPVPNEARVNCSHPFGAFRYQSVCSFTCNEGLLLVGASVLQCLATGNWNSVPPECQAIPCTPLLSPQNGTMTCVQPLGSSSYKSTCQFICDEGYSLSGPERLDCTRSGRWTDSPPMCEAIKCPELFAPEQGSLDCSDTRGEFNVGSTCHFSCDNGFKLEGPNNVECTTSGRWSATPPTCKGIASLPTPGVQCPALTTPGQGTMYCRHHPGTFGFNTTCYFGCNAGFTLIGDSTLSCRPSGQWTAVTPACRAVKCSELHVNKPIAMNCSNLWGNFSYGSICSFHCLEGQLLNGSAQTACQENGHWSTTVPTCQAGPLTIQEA
Procedure: Bicycle test samples, SelG1 (Crizanlizumab) were serially diluted maintaining 0.5% DMSO in assay buffer (25 mM HEPES, 121 mM NaCl, 5.4 mM KCl, 0.8 mM MgCl2, 1.8 mM CaCl2), 6 mM […], 5.5 mM glucose, 1% BSA, pH7.4) and transferred to 384 well clear bottom plates (Corning, 3712) with a final volume of 6 μL. […], of P-Selectin in imaging buffer (25 mM HEPES, 121 mM NaCl, 5.4 mM KCl, 0.8 mM MgCl2, 1.8 mM CaCl2), 6 mM […], 5.5 mM glucose, pH7.4) was added to give a 5 nM final concentration and incubated at room temperature for 15 minutes. HL-60 cells (ATCC, CCL-240) mixed with 1 μg/mL far red labelled wheat germ agglutinin (WGA, ThermoFisher W21404) and 1 μg/mL AlexaFluor 488-streptavidin (Invitrogen S11223) were added to the plate and incubated for 2 hours at room temperature in the absence of light. Staining and antibody binding were quantified by simultaneously scanning the microplates with 488 nm and 640 nm lasers on a mirrorball microplate cytometer, AF488 on FL2 triggering on AF647-WGA on FL4. Data was analysed in Dotmatics, using a four parameter logistic fit to generate IC50 values and % response. Percent inhibition was calculated using 100−% response at top concentration.

human P-Selectin protein = target: T2, human P-Selectin protein (Homo sapiens, UniProt P16109); experiment: SPR binding assay (Biacore); details: Affinity KD determined by SPR, recombinant biotinylated human P-Selectin, 25° C.
T2 sequence (P16109 42-830): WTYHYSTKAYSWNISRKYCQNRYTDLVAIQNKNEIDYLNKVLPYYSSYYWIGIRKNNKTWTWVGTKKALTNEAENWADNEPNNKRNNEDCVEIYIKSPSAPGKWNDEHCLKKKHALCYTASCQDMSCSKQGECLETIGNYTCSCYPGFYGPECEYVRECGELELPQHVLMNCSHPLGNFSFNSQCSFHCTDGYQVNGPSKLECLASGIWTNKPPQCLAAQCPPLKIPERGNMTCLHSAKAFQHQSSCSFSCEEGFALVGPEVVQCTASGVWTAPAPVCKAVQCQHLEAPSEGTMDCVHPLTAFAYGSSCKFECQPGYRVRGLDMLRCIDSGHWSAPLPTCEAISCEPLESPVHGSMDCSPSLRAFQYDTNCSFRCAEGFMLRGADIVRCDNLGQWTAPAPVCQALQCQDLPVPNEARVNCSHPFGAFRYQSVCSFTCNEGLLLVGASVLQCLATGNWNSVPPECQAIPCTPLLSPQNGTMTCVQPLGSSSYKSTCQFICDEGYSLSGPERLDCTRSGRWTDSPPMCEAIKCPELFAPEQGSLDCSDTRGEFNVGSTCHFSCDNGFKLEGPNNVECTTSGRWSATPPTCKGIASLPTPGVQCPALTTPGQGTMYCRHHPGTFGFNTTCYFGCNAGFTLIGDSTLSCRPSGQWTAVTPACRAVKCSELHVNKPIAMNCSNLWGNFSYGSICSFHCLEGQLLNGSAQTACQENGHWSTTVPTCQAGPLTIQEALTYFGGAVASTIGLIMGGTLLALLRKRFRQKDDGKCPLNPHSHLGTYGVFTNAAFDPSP
Procedure: Biacore experiments were performed to determine ka (M−1s−1), kd (s−1), KD (nM) values of monomeric peptides binding to human Selectin proteins. Recombinant biotinylated human P-Selectin protein was used. For analysis of binding, either a Biacore 3000 or 5200 instrument was used with a CMS sensor chip (GE Healthcare). For sensor chip surface preparation, streptavidin was immobilized on the chip using standard amine-coupling chemistry at 25° C. with HBS-N (10 mM HEPES, 0.15 M NaCl, pH 7.4) as the running buffer. The carboxymethyl dextran surface was activated with a 12 min injection of a 1:1 ratio of 0.4 M 1-ethyl-3-(3-dim ethyl aminopropyl) carbodiimide hydrochloride (EDC)/0.1 M N-hydroxy succinimide (NHS) at a flow rate of 10 μl/min. For capture of streptavidin, protein was diluted to 0.2 mg/ml in 10 mM sodium acetate (pH 4.5) and captured by injecting 70 μl onto the activated chip surface. Residual activated groups were blocked with a 7 min injection of 1 M ethanolamine (pH 8.5). Biotinylated protein stock was diluted 1:100 in HBS-N and captured on one flow cell at 5 μl/min to a level of 1000-1500 RU. Buffer was changed to PBS/0.05% Tween 20 and a dilution series of the peptides was prepared in this buffer with a final DMSO concentration of 0.5%. The top concentration of the analyte varied from 200 nM to 50 μM; depending on predicted affinity of the interaction. In all cases a titration was performed with either seven 2-fold dilutions or five 3-fold dilutions. The SPR analysis was run at 25° C. with a flow rate of 50-80 μl/min with 60 seconds association and a suitable disassociation period (100-900 seconds). Data were corrected for DMSO excluded volume effects. All data were double-referenced for blank injections and reference surface using standard processing procedures and data processing and kinetic fitting were performed using Scrubber software, version 2.0c (BioLogic Software). Data were fitted using mass transport model allowing for mass transport effects where appropriate.

[2] = 5 nM P-Selectin, HL-60 cells, geomean of n=3, read-out: IC50

Compound	IC50 [1]	Inhibition at top concentration ([1]; geomean of n=3)	Kd (human P-Selectin protein)	IC50 [1, 2]
CC(C)C[C@@H]1NC(=O)[C@H](CO)NC(=O)[C@@H]2CCCN2C(=O)[C@H](C(C)C)NC(=O)[C@H](CC(=O)O)NC(=O)[C@@H]2CSCC(=O)N3CCN(CCN(CC3)C(=O)CSC[C@@H](C(=O)N[C@@H](C)C(=O)N[C@@H](CCCCNC(=O)CCc3cn(CCOCCOCCOCCOCCOCCOCCOCCOCCOCCOCCOCCOCCOCCOCCOCCOCCOCCOCCOCCOCCOCCOCCOCCNC(=O)CCOCC(COCCC(=O)NCCOCCOCCOCCOCCOCCOCCOCCOCCOCCOCCOCCOCCOCCOCCOCCOCCOCCOCCOCCOCCOCCOCCOCCn4cc(CCC(=O)NCCCC[C@H](NC(=O)[C@H](C)NC(=O)[C@@H]5CSCC(=O)N6CCN7CCN(CC6)C(=O)CSC[C@H](NC(=O)[C@H](Cc6c[nH]c8ccccc68)NC(=O)[C@H](CC(=O)O)NC(=O)[C@H](C)NC(=O)[C@H](CC(=O)O)NC(=O)[C@@H](NC(=O)[C@H](C)N)CSCC7=O)C(=O)N[C@@H](CC(=O)O)C(=O)N[C@@H](C(C)C)C(=O)N6CCC[C@H]6C(=O)N[C@@H](CO)C(=O)N[C@@H](CC(C)C)C(=O)N6CCC[C@H]6C(=O)N5)C(N)=O)nn4)(COCCC(=O)NCCOCCOCCOCCOCCOCCOCCOCCOCCOCCOCCOCCOCCOCCOCCOCCOCCOCCOCCOCCOCCOCCOCCOCCn4cc(CCC(=O)NCCCC[C@H](NC(=O)[C@H](C)NC(=O)[C@@H]5CSCC(=O)N6CCN7CCN(CC6)C(=O)CSC[C@H](NC(=O)[C@H](Cc6c[nH]c8ccccc68)NC(=O)[C@H](CC(=O)O)NC(=O)[C@H](C)NC(=O)[C@H](CC(=O)O)NC(=O)[C@@H](NC(=O)[C@H](C)N)CSCC7=O)C(=O)N[C@@H](CC(=O)O)C(=O)N[C@@H](C(C)C)C(=O)N6CCC[C@H]6C(=O)N[C@@H](CO)C(=O)N[C@@H](CC(C)C)C(=O)N6CCC[C@H]6C(=O)N5)C(N)=O)nn4)COCCC(=O)NCCOCCOCCOCCOCCOCCOCCOCCOCCOCCOCCOCCOCCOCCOCCOCCOCCOCCOCCOCCOCCOCCOCCOCCn4cc(CCC(=O)NCCCC[C@H](NC(=O)[C@H](C)NC(=O)[C@@H]5CSCC(=O)N6CCN7CCN(CC6)C(=O)CSC[C@H](NC(=O)[C@H](Cc6c[nH]c8ccccc68)NC(=O)[C@H](CC(=O)O)NC(=O)[C@H](C)NC(=O)[C@H](CC(=O)O)NC(=O)[C@@H](NC(=O)[C@H](C)N)CSCC7=O)C(=O)N[C@@H](CC(=O)O)C(=O)N[C@@H](C(C)C)C(=O)N6CCC[C@H]6C(=O)N[C@@H](CO)C(=O)N[C@@H](CC(C)C)C(=O)N6CCC[C@H]6C(=O)N5)C(N)=O)nn4)nn3)C(N)=O)NC(=O)[C@@H]3CCCN3C1=O)C(=O)CSC[C@H](NC(=O)[C@H](C)N)C(=O)N[C@@H](CC(=O)O)C(=O)N[C@@H](C)C(=O)N[C@@H](CC(=O)O)C(=O)N[C@@H](Cc1c[nH]c3ccccc13)C(=O)N2 [BCY12261]	10.4 nM	68%	0.019 nM	
I: ACDADWCDVPSLPCAK-NH2 / II: ACDADWCDVPSLPCAK-NH2 / III: ACDADWCDVPSLPCAK-NH2 (linker I:2-I:7-I:14, II:2-II:7-II:14, III:2-III:7-III:14 via X1; linker I:16-II:16-III:16 via X3) [BCY12259]		61%	0.233 nM	14.4 nM
CC(C)C[C@@H]1NC(=O)[C@H](CO)NC(=O)[C@@H]2CCCN2C(=O)[C@H](C(C)C)NC(=O)[C@H](CC(=O)O)NC(=O)[C@@H]2CSCC(=O)N3CCN(CCN(CC3)C(=O)CSC[C@@H](C(=O)N[C@@H](C)C(=O)N[C@@H](CCCCNC(=O)CCc3cn(CCOCCOCCOCCOCCOCCOCCOCCOCCOCCOCCOCCOCCOCCOCCOCCOCCOCCOCCOCCOCCOCCOCCOCCNC(=O)CCCC(=O)NCCOCCOCCOCCOCCOCCOCCOCCOCCOCCOCCOCCOCCOCCOCCOCCOCCOCCOCCOCCOCCOCCOCCOCCn4cc(CCC(=O)NCCCC[C@H](NC(=O)[C@H](C)NC(=O)[C@@H]5CSCC(=O)N6CCN7CCN(CC6)C(=O)CSC[C@H](NC(=O)[C@H](Cc6c[nH]c8ccccc68)NC(=O)[C@H](CC(=O)O)NC(=O)[C@H](C)NC(=O)[C@H](CC(=O)O)NC(=O)[C@@H](NC(=O)[C@H](C)N)CSCC7=O)C(=O)N[C@@H](CC(=O)O)C(=O)N[C@@H](C(C)C)C(=O)N6CCC[C@H]6C(=O)N[C@@H](CO)C(=O)N[C@@H](CC(C)C)C(=O)N6CCC[C@H]6C(=O)N5)C(N)=O)nn4)nn3)C(N)=O)NC(=O)[C@@H]3CCCN3C1=O)C(=O)CSC[C@H](NC(=O)[C@H](C)N)C(=O)N[C@@H](CC(=O)O)C(=O)N[C@@H](C)C(=O)N[C@@H](CC(=O)O)C(=O)N[C@@H](Cc1c[nH]c3ccccc13)C(=O)N2 [BCY12257] (I: H-ACDADWCDVPSLPCAK-NH2 / II: H-ACDADWCDVPSLPCAK-NH2; linker I:2-I:7-I:14, II:2-II:7-II:14 via X1; linker I:16-II:16 via X2)		54%	11.6 nM	> 78.4 nM

From US12150998B2, “Bicyclic peptide ligands specific for P-selectin” (BicycleTx Limited, priority 2021, dated 2024)
